Tested on: Rhizoctonia solani
Test: Mycelial growth test
Assay type: cell-based
Details: RS; for inhibition at 5 ppm / inhibition at 10 ppm / inhibition at 20 ppm / inhibition at 40 ppm: Rhizoctonia solani, 72 h, read-out: Percent Fungus Growth Inhibition; for Percent Fungus Growth Inhibition: 72 hours
From the text: | RS = Rhizoctonia solani

Compound: Cc1ccc(Oc2nsnc(Cl)c2=O)c(Br)c1 [Compound 57, 3-[(2-bromo-4-methyl)-phenoxy]-5-chloro-4H--1,2,6-thiadiazin-4-one]
- inhibition at 5 ppm (5 ppm): 53%
- inhibition at 10 ppm (10 ppm): 69%
- inhibition at 20 ppm (20 ppm): 80%
- inhibition at 40 ppm (40 ppm): 78%

Compound: Cc1cc(Cl)ccc1Oc1nsnc(Cl)c1=O [Compound 55, 3-chloro-5-(4-chloro-2-methylphenoxy)-4H--1,2,6-thiadiazin-4-one]
- inhibition at 5 ppm (5 ppm): 33%
- inhibition at 10 ppm (10 ppm): 56%
- inhibition at 20 ppm (20 ppm): 31%
- inhibition at 40 ppm (40 ppm): 53%

Compound: CC(=O)c1ccc(Oc2nsnc(Cl)c2=O)cc1 [Compound 47, 3-(4-acetylphenoxy)-5-chloro-4H--1,2,6-thiadiazin-4-one]
- inhibition at 5 ppm (5 ppm): 58%
- inhibition at 10 ppm (10 ppm): 47%
- inhibition at 20 ppm (20 ppm): 69%
- inhibition at 40 ppm (40 ppm): 78%

Compound: Cc1cccc(Oc2nsnc(Cl)c2=O)c1 [Compound 21, 3-chloro-5-(3-methylphenoxy)-4H--1,2,6-thiadiazin-4-one]
- inhibition at 5 ppm (5 ppm): 53%
- inhibition at 10 ppm (10 ppm): 64%
- inhibition at 20 ppm (20 ppm): 87%
- inhibition at 40 ppm (40 ppm): 100%

Compound: O=C(Nc1ccccc1)Oc1ccc(Oc2nsnc(Cl)c2=O)cc1 [Compound 37, 3-chloro-5-[4-(phenylaminocarbonyloxy)phenoxy]-4H-1,2,6,-thiadiazin-4-one]
- inhibition at 5 ppm (5 ppm): 11%
- inhibition at 10 ppm (10 ppm): 42%
- inhibition at 20 ppm (20 ppm): 31%
- inhibition at 40 ppm (40 ppm): 51%

Compound: 3-chloro-5-(bromophenoxy)-4H-1,2,6-thiadiazin-4-one [Compound 33]
- Percent Fungus Growth Inhibition (5 ppm): 31%
- Percent Fungus Growth Inhibition (10 ppm): 42%
- Percent Fungus Growth Inhibition (20 ppm): 64%
- Percent Fungus Growth Inhibition (40 ppm): 100%

Compound: Cc1cc(Oc2nsnc(Cl)c2=O)ccc1Cl [Compound 54, 3-chloro-5-(4-chloro-3-methylphenoxy)-4H--1,2,6-thiadiazin-4-one]
- inhibition at 5 ppm (5 ppm): 38%
- inhibition at 10 ppm (10 ppm): 42%
- inhibition at 20 ppm (20 ppm): 42%
- inhibition at 40 ppm (40 ppm): 71%

Compound: Cc1cccc(C)c1Oc1nsnc(Cl)c1=O [Compound 24, 3-chloro-5-(2,6-dimethylphenoxy)-4H--1,2,6-thiadiazin-4-one]
- inhibition at 5 ppm (5 ppm): 20%
- inhibition at 10 ppm (10 ppm): 64%
- inhibition at 20 ppm (20 ppm): 82%
- inhibition at 40 ppm (40 ppm): 100%

Compound: CC(=O)c1ccccc1Oc1nsnc(Cl)c1=O [Compound 49, 3-(2-acetylphenoxy)-5-chloro-4H--1,2,6-thiadiazin-4-one]
- inhibition at 5 ppm (5 ppm): 9%
- inhibition at 10 ppm (10 ppm): 24%
- inhibition at 20 ppm (20 ppm): 42%
- inhibition at 40 ppm (40 ppm): 64%

Compound: O=c1c(Cl)nsnc1Oc1cccc(Cl)c1Cl [Compound 19, 3-chloro-5-(2,3-dichlorophenoxy)-4H--1,2,6-thiadiazin-4-one]
- inhibition at 5 ppm (5 ppm): 29%
- inhibition at 10 ppm (10 ppm): 47%
- inhibition at 20 ppm (20 ppm): 69%
- inhibition at 40 ppm (40 ppm): 82%

Compound: O=c1c(Cl)nsnc1Oc1ccc(Cl)cc1Cl [Compound 17, 3-chloro-5-(2,4-dichlorophenoxy)-4H--1,2,6-thiadiazin-4-one]
- inhibition at 5 ppm (5 ppm): 40%
- inhibition at 10 ppm (10 ppm): 53%
- inhibition at 20 ppm (20 ppm): 76%
- inhibition at 40 ppm (40 ppm): 76%

Compound: O=c1c(Cl)nsnc1Oc1cc(Cl)cc(Cl)c1 [Compound 20, 3-chloro-5-(3,5-dichlorophenoxy)-4H--1,2,6-thiadiazin-4-one]
- inhibition at 5 ppm (5 ppm): 51%
- inhibition at 10 ppm (10 ppm): 58%
- inhibition at 20 ppm (20 ppm): 76%
- inhibition at 40 ppm (40 ppm): 78%

Compound: Nc1ccc(Oc2nsnc(Cl)c2=O)cc1 [Compound 26, 5-(4-aminophenoxy)-3-chloro-4H--1,2,6-thiadiazin-4-one]
- Percent Fungus Growth Inhibition (10 ppm): 53%
- inhibition at 5 ppm (5 ppm): 0%
- inhibition at 20 ppm (20 ppm): 42%
- inhibition at 40 ppm (40 ppm): 76%

Compound: O=c1c(Cl)nsnc1Oc1ccc([N+](=O)[O-])cc1 [Compound 9, 3-chloro-5-(4-nitrophenoxy)-4H--1,2,6-thiadiazin-4-one]
- inhibition at 5 ppm (5 ppm): 13%
- inhibition at 10 ppm (10 ppm): 42%
- inhibition at 20 ppm (20 ppm): 69%
- inhibition at 40 ppm (40 ppm): 78%

Compound: Cc1cc(Oc2nsnc(Cl)c2=O)cc(C)c1Br [Compound 60, 3-[(4-bromo-3,5-dimethyl)-phenoxy]-5-chloro-4H--1,2,6-thiadiazin-4-one]
- inhibition at 5 ppm (5 ppm): 42%
- inhibition at 10 ppm (10 ppm): 31%
- inhibition at 20 ppm (20 ppm): 42%
- inhibition at 40 ppm (40 ppm): 56%

Compound: O=c1c(Cl)nsnc1Oc1ccc(Br)cc1 [Compound 15, 3-chloro-5-(4-bromophenoxy)-4H--1,2,6-thiadiazin-4-one]
- inhibition at 5 ppm (5 ppm): 13%
- inhibition at 10 ppm (10 ppm): 38%
- inhibition at 20 ppm (20 ppm): 38%
- inhibition at 40 ppm (40 ppm): 53%
